According to the NIST ThermoML archive (doi:10.1016/j.jct.2018.01.003):
Numbers after ± are expanded uncertainties.

Assays:
[1] = 101.33 kPa, Liquid, Vibrating tube method
[2] = activity coefficient (dimensionless); of the first substance listed, at infinite dilution; xn = mol fraction of the nth substance listed; details: 101.33 kPa, Liquid, Chromatography, x1 = 0

SMILES | mass density ([1]; 298.15 K) | mass density ([1]; 308.15 K) | mass density ([1]; 318.15 K) | mass density ([1]; 328.15 K) | mass density ([1]; 338.15 K) | mass density ([1]; 348.15 K) | mass density ([1]; 358.15 K) | mass density ([1]; 368.15 K) | activity coefficient ([2]; 328.15 K) | activity coefficient ([2]; 338.15 K) | activity coefficient ([2]; 348.15 K) | activity coefficient ([2]; 358.15 K) | activity coefficient ([2]; 368.15 K)
CC(C)CC(C)(C)C [2,2,4-trimethylpentane] + CCCCCCCCCCCCCC[P+](CCCCCC)(CCCCCC)CCCCCC.N#CC(=C=[N-])C#N |  |  |  |  |  |  |  |  | 2.22 ± 0.15 | 2.25 ± 0.15 | 2.28 ± 0.16 | 2.31 ± 0.16 | 2.33 ± 0.16
CCCC=O [butanal] + CCCCCCCCCCCCCC[P+](CCCCCC)(CCCCCC)CCCCCC.N#CC(=C=[N-])C#N |  |  |  |  |  |  |  |  | 0.46 ± 0.036 | 0.477 ± 0.037 | 0.494 ± 0.038 | 0.513 ± 0.038 | 0.533 ± 0.039
CCCCCCC [heptane] + CCCCCCCCCCCCCC[P+](CCCCCC)(CCCCCC)CCCCCC.N#CC(=C=[N-])C#N |  |  |  |  |  |  |  |  | 2.04 ± 0.14 | 2.06 ± 0.14 | 2.08 ± 0.14 | 2.1 ± 0.14 | 2.12 ± 0.14
CCC(C)(C)C [2,2-dimethylbutane] + CCCCCCCCCCCCCC[P+](CCCCCC)(CCCCCC)CCCCCC.N#CC(=C=[N-])C#N |  |  |  |  |  |  |  |  | 1.85 ± 0.12 | 1.87 ± 0.13 | 1.89 ± 0.13 | 1.91 ± 0.13 | 1.93 ± 0.13
C1COCCO1 [1,4-dioxane] + CCCCCCCCCCCCCC[P+](CCCCCC)(CCCCCC)CCCCCC.N#CC(=C=[N-])C#N |  |  |  |  |  |  |  |  | 0.578 ± 0.041 | 0.594 ± 0.042 | 0.608 ± 0.043 | 0.628 ± 0.043 | 0.642 ± 0.044
C=C(C)c1ccccc1 [(1-methylethenyl)benzene] + CCCCCCCCCCCCCC[P+](CCCCCC)(CCCCCC)CCCCCC.N#CC(=C=[N-])C#N |  |  |  |  |  |  |  |  |  | 0.64 ± 0.044 | 0.678 ± 0.046 | 0.716 ± 0.048 | 0.751 ± 0.049
CCC(C)(C)OC [2-methoxy-2-methylbutane] + CCCCCCCCCCCCCC[P+](CCCCCC)(CCCCCC)CCCCCC.N#CC(=C=[N-])C#N |  |  |  |  |  |  |  |  | 1.01 ± 0.06 | 1.06 ± 0.07 | 1.1 ± 0.07 | 1.14 ± 0.07 | 1.18 ± 0.08
C1CCCC1 [cyclopentane] + CCCCCCCCCCCCCC[P+](CCCCCC)(CCCCCC)CCCCCC.N#CC(=C=[N-])C#N |  |  |  |  |  |  |  |  | 0.99 ± 0.062 | 1 ± 0.06 | 1.01 ± 0.06 | 1.03 ± 0.06 | 1.04 ± 0.07
C#CCCCCCC [1-octyne] + CCCCCCCCCCCCCC[P+](CCCCCC)(CCCCCC)CCCCCC.N#CC(=C=[N-])C#N |  |  |  |  |  |  |  |  | 1.06 ± 0.07 | 1.11 ± 0.07 | 1.16 ± 0.07 | 1.21 ± 0.08 | 1.25 ± 0.08
c1ccncc1 [pyridine] + CCCCCCCCCCCCCC[P+](CCCCCC)(CCCCCC)CCCCCC.N#CC(=C=[N-])C#N |  |  |  |  |  |  |  |  |  | 0.401 ± 0.034 | 0.413 ± 0.034 | 0.425 ± 0.035 | 0.438 ± 0.035
C=CCCCCC [1-heptene] + CCCCCCCCCCCCCC[P+](CCCCCC)(CCCCCC)CCCCCC.N#CC(=C=[N-])C#N |  |  |  |  |  |  |  |  | 1.56 ± 0.1 | 1.6 ± 0.11 | 1.64 ± 0.11 | 1.67 ± 0.11 | 1.7 ± 0.11
CCC(C)CC [3-methylpentane] + CCCCCCCCCCCCCC[P+](CCCCCC)(CCCCCC)CCCCCC.N#CC(=C=[N-])C#N |  |  |  |  |  |  |  |  | 1.69 ± 0.11 | 1.72 ± 0.12 | 1.75 ± 0.12 | 1.78 ± 0.12 | 1.8 ± 0.1
CCOC(C)(C)C [2-ethoxy-2-methylpropane] + CCCCCCCCCCCCCC[P+](CCCCCC)(CCCCCC)CCCCCC.N#CC(=C=[N-])C#N |  |  |  |  |  |  |  |  | 1.4 ± 0.09 | 1.45 ± 0.1 | 1.48 ± 0.1 | 1.53 ± 0.1 | 1.56 ± 0.1
CC(C)OC(C)C [diisopropyl ether] + CCCCCCCCCCCCCC[P+](CCCCCC)(CCCCCC)CCCCCC.N#CC(=C=[N-])C#N |  |  |  |  |  |  |  |  | 1.5 ± 0.1 | 1.54 ± 0.1 | 1.58 ± 0.1 | 1.62 ± 0.11 | 1.66 ± 0.11
COC(C)(C)C [2-methoxy-2-methylpropane] + CCCCCCCCCCCCCC[P+](CCCCCC)(CCCCCC)CCCCCC.N#CC(=C=[N-])C#N |  |  |  |  |  |  |  |  | 0.946 ± 0.06 | 0.99 ± 0.062 | 1.02 ± 0.06 | 1.06 ± 0.07 | 1.1 ± 0.07

Continued, values first:

mass density ([1]; 298.15 K) | mass density ([1]; 308.15 K) | mass density ([1]; 318.15 K) | mass density ([1]; 328.15 K) | mass density ([1]; 338.15 K) | mass density ([1]; 348.15 K) | mass density ([1]; 358.15 K) | mass density ([1]; 368.15 K) | activity coefficient ([2]; 328.15 K) | activity coefficient ([2]; 338.15 K) | activity coefficient ([2]; 348.15 K) | activity coefficient ([2]; 358.15 K) | activity coefficient ([2]; 368.15 K) | SMILES
900.77 ± 3.7 kg/m3 | 894.91 ± 3.7 kg/m3 | 889.05 ± 3.7 kg/m3 | 883.23 ± 3.7 kg/m3 | 877.43 ± 3.7 kg/m3 | 871.66 ± 3.7 kg/m3 | 865.92 ± 3.6 kg/m3 | 860.2 ± 3.6 kg/m3 |  |  |  |  |  | CCCCCCCCCCCCCC[P+](CCCCCC)(CCCCCC)CCCCCC.N#CC(=C=[N-])C#N [trihexyltetradecylphosphonium tricyanomethanide]
 |  |  |  |  |  |  |  | 0.503 ± 0.038 | 0.507 ± 0.038 | 0.51 ± 0.038 | 0.514 ± 0.038 | 0.516 ± 0.038 | CC(C)O [propan-2-ol] + CCCCCCCCCCCCCC[P+](CCCCCC)(CCCCCC)CCCCCC.N#CC(=C=[N-])C#N
 |  |  |  |  |  |  |  | 0.652 ± 0.045 | 0.683 ± 0.046 | 0.709 ± 0.047 | 0.739 ± 0.049 | 0.764 ± 0.05 | CCCC(=O)OC [methyl butanoate] + CCCCCCCCCCCCCC[P+](CCCCCC)(CCCCCC)CCCCCC.N#CC(=C=[N-])C#N
 |  |  |  |  |  |  |  | 1.81 ± 0.12 | 1.85 ± 0.12 | 1.88 ± 0.13 | 1.91 ± 0.13 | 1.94 ± 0.13 | C=CCCCCCC [oct-1-ene] + CCCCCCCCCCCCCC[P+](CCCCCC)(CCCCCC)CCCCCC.N#CC(=C=[N-])C#N
 |  |  |  |  |  |  |  | 0.616 ± 0.043 | 0.641 ± 0.044 | 0.663 ± 0.045 | 0.688 ± 0.046 | 0.711 ± 0.047 | CCC(=O)OC [methyl propanoate] + CCCCCCCCCCCCCC[P+](CCCCCC)(CCCCCC)CCCCCC.N#CC(=C=[N-])C#N
 |  |  |  |  |  |  |  | 1.77 ± 0.12 | 1.81 ± 0.12 | 1.83 ± 0.12 | 1.86 ± 0.13 | 1.88 ± 0.13 | CCCCCC [hexane] + CCCCCCCCCCCCCC[P+](CCCCCC)(CCCCCC)CCCCCC.N#CC(=C=[N-])C#N
 |  |  |  |  |  |  |  | 0.426 ± 0.035 | 0.437 ± 0.035 | 0.447 ± 0.036 | 0.457 ± 0.036 | 0.465 ± 0.036 | CCCO [propan-1-ol] + CCCCCCCCCCCCCC[P+](CCCCCC)(CCCCCC)CCCCCC.N#CC(=C=[N-])C#N
 |  |  |  |  |  |  |  | 1.39 ± 0.09 | 1.42 ± 0.09 | 1.43 ± 0.09 | 1.46 ± 0.1 | 1.48 ± 0.1 | C=CCCCC [hex-1-ene] + CCCCCCCCCCCCCC[P+](CCCCCC)(CCCCCC)CCCCCC.N#CC(=C=[N-])C#N
 |  |  |  |  |  |  |  |  | 0.459 ± 0.036 | 0.477 ± 0.037 | 0.502 ± 0.038 | 0.52 ± 0.039 | CCCC(C)=O [pentan-2-one] + CCCCCCCCCCCCCC[P+](CCCCCC)(CCCCCC)CCCCCC.N#CC(=C=[N-])C#N
 |  |  |  |  |  |  |  |  | 0.451 ± 0.036 | 0.47 ± 0.037 | 0.494 ± 0.038 | 0.514 ± 0.038 | CCC(=O)CC [pentan-3-one] + CCCCCCCCCCCCCC[P+](CCCCCC)(CCCCCC)CCCCCC.N#CC(=C=[N-])C#N
 |  |  |  |  |  |  |  | 1.59 ± 0.11 | 1.62 ± 0.11 | 1.64 ± 0.11 | 1.67 ± 0.11 | 1.69 ± 0.11 | CCCCC [pentane] + CCCCCCCCCCCCCC[P+](CCCCCC)(CCCCCC)CCCCCC.N#CC(=C=[N-])C#N
 |  |  |  |  |  |  |  | 2.35 ± 0.16 | 2.36 ± 0.16 | 2.37 ± 0.16 | 2.38 ± 0.16 | 2.39 ± 0.16 | CCCCCCCC [octane] + CCCCCCCCCCCCCC[P+](CCCCCC)(CCCCCC)CCCCCC.N#CC(=C=[N-])C#N
